Data: patent US20070264411A1, “PROCESS OF PRODUCING A CAPSINOID-CONTAINING FOOD AND DRINK” (AJINOMOTO CO., INC., priority 2006, published 2007)

Tests used:
Assay type in all cases: physicochemical
[1] = Storage stability of diluted dihydrocapsiate emulsion with added emulsifier DECAGLYN 1-O (HPLC capsinoid content)
Procedure: A dihydrocapsiate emulsion composition was prepared according to the method described in Example 1 of JP Patent Kokai Publication No. JP-P2003-192576A. Briefly, decaglycerin monooleate (Nikko Chemical Co.; trade name, DECAGLYN 1-O) (21 g), glycerin (193 g) and water (26 g) were mixed, dissolved under heating at 90-95° C., and cooled to 30° C. Synthetic dihydrocapsiate (8.5 g) and sucrose acetate isobutyrate (SAIB) (51 g) were added and dissolved under heating at 85-90° C., and the mixture was emulsified at 30-90° C. to prepare a capsinoid-containing emulsion composition (pH 3.6). The resulting emulsion composition was diluted with up to 1000 parts of 0.01M citrate buffer (pH 3.5) supplemented with sucrose to obtain an additive-free sample. On the other hand, the composition was diluted with up to 1000 parts of 0.01M citrate buffer (pH 3.5) supplemented with sucrose to which was added 0.014%, 0.114% emulsifier (Nikko Chemical Co.; DECAGLYN 1-0) respectively, to prepare emulsion-supplemented samples. The resulting samples were sterilized by heating for 20 minutes at 44° C. and stored.
Every one week after storage, the capsinoid content was determined. Analysis of the capsinoid content was performed by high performance liquid chromatography (HPLC) after dilution with an ethyl acetate/methanol (6:4) mixture.

[2] = Storage stability of diluted dihydrocapsiate emulsion with a variety of emulsifiers added; settings: 8 emulsifiers of Table 1 other than DECAGLYN 1-O, each at 0.114% in 0.01M citrate buffer (pH 3.5) with sucrose; 1000 parts dilution; FIG. 2
Procedure: In the same manner as in Example 1, a dihydrocapsiate containing emulsion composition was diluted with up to 1000 parts of 0.01M citrate buffer (pH 3.5) supplemented with sucrose and the stability of storage was evaluated. Prior to addition of the dihydrocapsiate containing emulsion composition 8 types of emulsifiers were added to 0.01M citrate buffer (pH 3.5) supplemented with sucrose so as to be 0.114%, and the difference of the stability as a function of the emulsifier added was evaluated.

[3] = Storage stability of diluted dihydrocapsiate emulsion with a variety of high molecular weight components added; settings: 500 parts dilution, FIG. 3
Procedure: In the same manner as in Example 2, a dihydrocapsiate containing emulsion composition was diluted with up to 500 parts of 0.01M citrate buffer (pH 3.5) supplemented with sucrose and the stability of storage was evaluated. Prior to addition of the dihydrocapsiate containing emulsion composition 8 types of high molecular weight components were added to 0.01M citrate buffer (pH 3.5) supplemented with sucrose, and the difference of the stability as a function of the high molecular weight components added was evaluated. […] In regard to the amount of high molecular weight component to be added, xanthan gum was reduced to 0.1% because it gives high viscosity in a small quantity. The amount of other high molecular weight components added than xanthan gum was fixed at 0.5%.

[4] = Storage stability of dihydrocapsiate emulsion mixed with emulsifier in advance or diluted with emulsifier-containing buffer; settings: stored at 24° C. and 44° C.
Procedure: Into a capsinoid emulsion composition prepared in Example 1 an emulsifier (Nikko Chemical Co., Decaglyn 1-O) was blended at a ratio of 10 to 3 under heating (50-70° C.) to prepare a composition. The resulting composition was diluted with up to 230 parts of 0.01M citrate buffer (pH 3.5) supplemented with sucrose to prepare a mixture of the emulsion composition and the emulsifier. On the other hand, an additive-free sample prepared by diluting the capsinoid emulsion composition (prepared in Example 1) with up to 300 parts of the same buffer was diluted with up to 300 parts of 0.01M citrate buffer (pH 3.5) supplemented with sucrose to which was added an emulsifier (Nikko Chemical Co., DECAGLYN 1-0) in advance at a rate of 0.10%, to prepare a sample containing an emulsifier. In either sample, the content of capsinoid after dilution with the buffer correspond to 0.33% of the initial amount of capsinoid existing in the emulsion composition. Thus prepared samples were sterilized under heat for 20 minutes and stored at 24° C. and 44° C.
In periodical sampling, the content of capsinoid was determined. The content of capsinoid was analyzed by high performance liquid chromatography (HPLC) after dilution with a mixture of ethyl acetate and methanol (6:4).

COc1cc(COC(=O)CCCCCCC(C)C)ccc1O [dihydrocapsiate]
rate of residual dihydrocapsiate relative to emulsifier-free case ([1]; 0.114% emulsifier (DECAGLYN 1-O) added, about one month after storage, citrate buffer pH 3.5): ≥ 2 times | stability of dihydrocapsiate during storage [2]: improve the stability | storage stability of dihydrocapsiate ([3]; HM pectin 0.5% in 0.01M citrate buffer (pH 3.5) with sucrose): Improvement of the storage stability | storage stability of dihydrocapsiate ([3]; carboxymethylcellulose sodium (CMC sodium) 0.5% in 0.01M citrate buffer (pH 3.5) with sucrose): Improvement of the storage stability | storage stability of dihydrocapsiate ([3]; carrageenan 0.5% in 0.01M citrate buffer (pH 3.5) with sucrose): Improvement of the storage stability | storage stability of dihydrocapsiate ([4]; FIG. 4A: emulsion composition diluted up to 300 parts with buffer to which 0.10% DECAGLYN 1-O was previously added): improves the storage stability | storage stability of dihydrocapsiate ([4]; FIG. 4B: emulsion composition pre-blended with Decaglyn 1-O (10 to 3), diluted up to 230 parts with buffer containing no emulsifier): improves the storage stability

dihydrocapsiate
storage stability of dihydrocapsiate ([1]; emulsion composition diluted up to 1000 parts with 0.01M citrate buffer (pH 3.5) with sucrose, 0.014% or 0.114% DECAGLYN 1-O added vs additive-free, FIG. 1): increased with increase of the amount of emulsifier added
